Source: ChEMBL document CHEMBL5252651, “Discovery of Bioactive Metabolites by Acidic Stress to a Geldanamycin Producer, Streptomyces samsunensis” (J Nat Prod, 2023)
Activity calls are given as the source filed them.

Assays:
Type in all cases: functional, organism-based
Staphylococcus aureus [1] = experiment: Anti-biofilm activity against methicillin-resistant Staphylococcus aureus USA300 LAC assessed as inhibition of biofilm formation incubated for 22 hrs by crystal violet staining based assay
Staphylococcus = experiment: Antivirulence activity against methicillin-resistant Staphylococcus aureus USA300 LAC assessed as inhibition of Phenol soluble modulin production at 5 ug/ml incubated for 22 hrs by LC-MS analysis; details: dose 5.0 µg/ml
Staphylococcus aureus [2] = experiment: Antibacterial activity against methicillin-resistant Staphylococcus aureus USA300 LAC assessed as bacterial growth inhibition at 5 ug/ml incubated for 22 hrs by microplate reader analysis; details: dose 5.0 µg/ml
Staphylococcus aureus [3] = experiment: Antivirulence activity against methicillin-resistant Staphylococcus aureus USA300 LAC assessed as change in […] transcriptional level at 10 ug/ml incubated for 8 to 16 hrs by qRT-PCR analysis; details: dose 10.0 µg/ml, time 8-16 hrs
Staphylococcus aureus [4] = experiment: Antivirulence activity against methicillin-resistant Staphylococcus aureus USA300 LAC assessed as change in RNAIII transcriptional level at 10 ug/ml incubated for 8 to 16 hrs by qRT-PCR analysis; details: dose 10.0 µg/ml, time 8-16 hrs
Staphylococcus aureus [5] = experiment: Antibacterial activity against methicillin-resistant Staphylococcus aureus USA300 LAC assessed as bacterial growth inhibition at 10 ug/ml incubated for 22 hrs by microplate reader analysis; details: dose 10.0 µg/ml

CC(=O)Nc1cc(O)cc(C[C@@H](C)C(=O)O)c1
inactive: Activity (Staphylococcus aureus [1]) | inhibition (Staphylococcus) | Activity (Staphylococcus aureus [2])

COc1c(-c2ccccc2)cc(O[C@@H]2O[C@H](C(=O)O)[C@@H](O)[C@H](O)[C@H]2O)c(-c2ccccc2)c1O
inactive: Activity (Staphylococcus aureus [1]) | inhibition (Staphylococcus) | Activity (Staphylococcus aureus [2])

CO[C@H]1/C=C\C=C(/C)C(=O)NC2=CC(=O)C(O)=C(C[C@@H](C)C[C@H](OC)[C@H](O)[C@@H](C)/C=C(\C)[C@@H]1OC(N)=O)C2=O
inactive: Activity (Staphylococcus aureus [1]) | Activity (Staphylococcus aureus [3]) | inhibition (Staphylococcus) | Activity (Staphylococcus aureus [2]) | Activity (Staphylococcus aureus [4]) | Activity (Staphylococcus aureus [5])

CO[C@H]1/C=C\C=C(/C)C(=O)Nc2cc(O)c(O)c(c2O)C[C@@H](C)C[C@H](OC)[C@H](O)[C@@H](C)/C=C(\C)[C@@H]1OC(N)=O
inactive: Activity (Staphylococcus aureus [1]) | inhibition (Staphylococcus) | Activity (Staphylococcus aureus [2])

COC1=C2C[C@@H](C)C[C@H](OC)[C@H](O)[C@@H](C)/C=C(\C)[C@H](OC(N)=O)[C@@H](OC)/C=C\C=C(/C)C(=O)NC(=CC1=O)C2=O
inactive: Activity (Staphylococcus aureus [1]) | Activity (Staphylococcus aureus [3]) | inhibition (Staphylococcus) | Activity (Staphylococcus aureus [2]) | Activity (Staphylococcus aureus [4]) | Activity (Staphylococcus aureus [5])

CO[C@@H](C[C@H](C)Cc1cc(O)cc(NC(C)=O)c1)C(=O)O
inactive: Activity (Staphylococcus aureus [1]) | inhibition (Staphylococcus) | Activity (Staphylococcus aureus [2])

Cc1cc(C[C@H](NC(=O)/C=C/C=C/CO)C(=O)O)ccc1O
inactive: Activity (Staphylococcus aureus [1]) | inhibition (Staphylococcus) | Activity (Staphylococcus aureus [2])

CO[C@H]1C[C@H](C)CC2=C(O)C(=O)C=C(NC(=O)/C(C)=C/[C@H](O)C[C@H](OC)[C@@H](OC(N)=O)/C(C)=C/[C@H](C)[C@H]1O)C2=O
inactive: Activity (Staphylococcus aureus [1]) | inhibition (Staphylococcus) | Activity (Staphylococcus aureus [2])

CO[C@@H](C[C@H](C)Cc1cc(O)cc(NC(C)=O)c1)[C@H](O)[C@H](C)C(=O)O
inactive: Activity (Staphylococcus aureus [1]) | Activity (Staphylococcus aureus [3]) | inhibition (Staphylococcus) | Activity (Staphylococcus aureus [2]) | Activity (Staphylococcus aureus [4]) | Activity (Staphylococcus aureus [5])

O=C(O)/C=C/C1=C(c2cccc(O)c2)C(=O)CC[C@H]1O
inactive: Activity (Staphylococcus aureus [1]) | inhibition (Staphylococcus) | Activity (Staphylococcus aureus [2])

CO[C@H]1C[C@H](C)CC2=C(O)C(=O)C=C(NC(=O)/C(C)=C/[C@@H](O)C[C@H](OC)[C@@H](OC(N)=O)/C(C)=C/[C@H](C)[C@H]1O)C2=O
inactive: Activity (Staphylococcus aureus [1]) | inhibition (Staphylococcus) | Activity (Staphylococcus aureus [2])
